One series relates to cerebral synaptosomes. As to the kind of experiment: Synaptosome isolation and ultrastructure (electron microscopy). In kind it is in vivo, mouse. As to conditions: suramin-treated Fmr1 KO mice. The source says:
Cerebral samples were collected, homogenized and synaptosomes isolated by discontinuous Percoll gradient centrifugation, drop dialyzed, glutaraldehyde fixed, post-fixed in osmium tetroxide, embedded, sectioned, and stained with uranyl acetate for transmission electron microscopy. Samples from the FVB control animals (+/−suramin) were not available for study by either electron microscopy or Western analysis.
In the present study of the Fragile X model, saline-treated Fmr1 knockout mice had cerebral synaptosomes that also contained an electron dense matrix, and fragile, hypomorphic post-synaptic densities.

The subject of series [1] is maternal immune activation (MIA) mouse model. The experiment in a line: Social approach (social preference), MIA model. In kind it is in vivo. The procedure:
To initiate the MIA model, pregnant dams were given two intraperitoneal injections of Poly(I:C) (Potassium salt; Sigma-Aldrich, St. Louis, Mo., USA, Cat no. P9582; >99% pure; <1% mononucleotide content). These were quantified by UV spectrophotometry. One unit (U) of poly(IC) was defined as 1 absorbance unit at 260 nm. Typically, 1U=12 μg of RNA. 0.25U/g [3 mg kg^−1] of poly(IC) was given on E12.5 and 0.125U g^−1 (1.5 mg kg^−1) on E17.5 as previously described. Contemporaneous control pregnancies were produced by timed matings and randomized assignment of pregnant dams to saline injection (5 μl g^−1 intraperitoneally (i.p.)) on E12.5 and E17.5.
Offspring of timed matings were weaned at 3-4 weeks of age into cages of two to four animals. No mice were housed in isolation. Only males were evaluated in these studies. Littermates were identified by ear tags and distributed into different cages in order to minimize litter and dam effects. To avoid chance differences in groups selected for single-dose treatment, the saline and poly(IC) exposure groups were each balanced according to their social approach scores at 2.25 months. […] Beginning 2 days later, behaviors were evaluated. […]
Social behavior in mice can be quantified as the time spent interacting with a novel (‘stranger’) mouse compared with the total time spent interacting with either a mouse or a novel inanimate object.

Series [2] shares this test system. As to the kind of experiment: T-maze spontaneous alternation, MIA model. It is filed as in vivo. Conditions: MIA animals. The procedure:
Novelty preference was tested as spontaneous alternation behavior in the T-maze. […] (N=8-13, 5.25-month-old males per group).
Novelty preference is an innate feature of normal rodent and human behavior and a predictor of socialization and communication growth in children with ASD. The loss or suppression of novelty preference in children with ASD is associated with the phenomenon known as insistence on sameness. Preference for novelty was estimated as spontaneous alternation behavior in the T-maze. The T-maze can also be used to estimate spatial working memory, especially when food-motivated. […] These deficits were normalized after a single dose of suramin.

Series [3] shares this test system. As to the kind of experiment: Rotarod (latency to fall), MIA model. It is filed as in vivo. As to conditions: MIA 6-month-old adults, single injection of suramin. From the text: (N=8-13, 6.75-month-old males per group).
Previous studies have shown age-dependent, postnatal loss of cerebellar Purkinje cells in the MIA model. This can reach up to 60% of Purkinje cells lost by 4 months (16 weeks) of age. Motor coordination measured by rotarod performance is deficient in the MIA model and is critically dependent on the integrity of Purkinje cell circuits in the cerebellum. Since Purkinje cells are known to be lost in MIA animals by 4 months (16 weeks) of age, it was hypothesized that APT given later in life would have no effect. The results confirmed this. […] Although cerebellar Purkinje cell density was not quantified in this study, our results are consistent with the notion that once Purkinje cells are lost, their function cannot be restored by APT in adult animals.

In series [4] the test system is Fragile X (Fmr1) knockout mouse. As to the kind of experiment: Body temperature measurements (rectal core temperature). It is filed as in vivo. The procedure:
A BAT-12 Microprobe digital thermometer and RET-3 mouse rectal probe (Physitemp Instruments, Clifton, N.J.) were used to obtain rectal core temperatures to a precision of +/−0.1° C. Care was taken to measure temperatures ≧2 days after cage bedding changes, and to avoid animal transport stress immediately prior to measurement in order to avoid stress-induced hyperthermia (Adriaan Bouwknecht et al., 2007). Temperatures were measured between 9 am to 12 noon each day.
Normal basal body temperature was restored by antipurinergic therapy with suramin.

Consider `Cc1ccc(C(=O)Nc2ccc(S(=O)(=O)O)c3cc(S(=O)(=O)O)cc(S(=O)(=O)O)c23)cc1NC(=O)c1cccc(NC(=O)Nc2cccc(C(=O)Nc3cc(C(=O)Nc4ccc(S(=O)(=O)O)c5cc(S(=O)(=O)O)cc(S(=O)(=O)O)c45)ccc3C)c2)c1` [Suramin, suramin], for which, in the series with cerebral synaptosomes, the cerebral synaptosome ultrastructure result was “near-normal appearing cerebral synaptosomes”. In series [1] (6.5-month-old MIA adults, single dose suramin 20 mg kg^−1 i.p.), the social abnormalities result was “completely reversed”. In series [1] (MIA animals, 5 weeks after single dose), the “social behavior five weeks after suramin washout” value is listed as “small residual benefit”. The “novelty preference five weeks after suramin washout” value in series [2] (5 weeks after single dose) is reported as “no residual benefit remained”. The “deficient novelty preference (spontaneous alternation in T-maze)” value in series [2] (single dose of suramin) is recorded as “normalized”. In series [3], the “motor coordination (rotarod)” value is on record as “failed to restore normal motor coordination”. Moreover, the “body temperature of control animals” value in series [4] (WT-Sal vs WT-Sur) is given as “no effect”. For the same compound, the “basal body temperature of Fmr1 knockout mice” value in series [4] (relative hypothermia of knockout, suramin treatment) is recorded as “restored”.

These data come from patent US20160209428A1, “DIAGNOSTIC AND PREDICTIVE METABOLITE PATTERNS FOR DISORDERS AFFECTING THE BRAIN AND NERVOUS SYSTEM” (THE REGENTS OF THE UNIVERSITY OF CALIFORNIA, priority 2013, published 2016).
